Data taken from US5162336A, “Tetrahydro-pyrido-indoles as cholecystokinin and gastrin antagonists” (Rhone-Poulenc Rorer Pharmaceuticals Inc., priority 1990, dated 1992).

biological target: T1, Gastrin receptor (Cavia porcellus, UniProt H0VZC5); test: Gastrin receptor binding assay (displacement of 125I-(Leu-15)-Gastrin from guinea pig fundic glands); set-up: species or system guinea pig (Hartley Strain); details: guinea pig fundic mucosa glands, 25° C., 30 min, read-out: In vitro Binding Data IC50 Gastrin
T1 construct: The fundic mucosa is gently scraped off the submucosa; from tissue; host or cells: gastric glands from fundic mucosa of Hartley guinea pig
T1 sequence (H0VZC5 1-426): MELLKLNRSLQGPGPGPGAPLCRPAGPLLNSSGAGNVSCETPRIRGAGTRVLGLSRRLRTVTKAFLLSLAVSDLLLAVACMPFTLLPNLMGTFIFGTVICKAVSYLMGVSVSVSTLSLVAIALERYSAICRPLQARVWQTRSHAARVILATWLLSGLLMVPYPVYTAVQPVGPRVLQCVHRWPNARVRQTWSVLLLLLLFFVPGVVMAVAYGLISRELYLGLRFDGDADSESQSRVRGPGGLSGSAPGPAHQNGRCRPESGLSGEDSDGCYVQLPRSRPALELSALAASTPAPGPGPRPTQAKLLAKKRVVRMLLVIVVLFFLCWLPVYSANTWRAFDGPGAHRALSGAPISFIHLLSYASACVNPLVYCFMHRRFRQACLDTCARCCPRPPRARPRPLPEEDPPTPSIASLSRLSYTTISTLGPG
How it was run: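 Isolated gastric fundic glands from Hartley guinea pig (collagenase digestion, 2x10^5 glands/ml) incubated 30 min at 25 °C under 95% O2/5% CO2 with tracer ^125I-(Leu-15)-gastrin and compound in triplicate. Bound tracer collected on glass fiber filters and gamma-counted; nonspecific defined with 25 μM (Leu-15)-gastrin stock. IC50 = concentration giving 50% loss of specific binding, from log-concentration plot.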

SMILES	IC50 [µM]
Cc1cccc(NC(=O)N2Cc3[nH]c4ccccc4c3C[C@@H]2C(=O)N[C@H](CC(C)C)C(=O)N[C@@H](CC(=O)O)C(N)=O)c1 [Example 57, N-[(3R)-2-(3-methylphenylcarbamoyl)-1,2,3,4-tetrahydro-9H-pyrido[3,4-b]indole-3-carboxyl]-D-leucyl-L-aspartic acid amide]	22
Cc1cccc(NC(=O)N2Cc3[nH]c4ccccc4c3C[C@@H]2C(=O)N[C@@H](C)C(=O)N[C@@H](CC(=O)O)C(N)=O)c1 [Example 58]	18
CC(C)C[C@H](NC(=O)[C@H]1Cc2c([nH]c3ccccc23)CN1C(=O)Nc1cc(Cl)cc(Cl)c1)C(=O)N[C@@H](CC(=O)O)C(N)=O [Example 59, N-[(3R)-2-(3,5-dichlorophenylcarbamoyl)-1,2,3,4-tetrahydro-9H-pyrido[3,4-b]indole-3-carboxyl]-L-leucyl-L-aspartic acid amide]	2
Cc1cc(C)cc(NC(=O)N2Cc3[nH]c4ccccc4c3C[C@@H]2C(=O)N[C@@H](CC(C)C)C(=O)N[C@@H](CC(=O)O)C(N)=O)c1 [Example 60, N-[(3R)-2-(3,5-dimethylphenylcarbamoyl)-1,2,3,4-tetrahydro-9H-pyrido[3,4-b]indole-3-carboxyl]-L-leucyl-L-aspartic acid amide]	15
COc1cccc(NC(=O)N2Cc3[nH]c4ccccc4c3C[C@@H]2C(=O)N[C@@H](CC(C)C)C(=O)N[C@@H](CC(=O)O)C(N)=O)c1 [Example 61]	6.4
CC(C)C[C@H](NC(=O)[C@H]1Cc2c([nH]c3ccccc23)CN1C(=O)Nc1ccc2ccccc2c1)C(=O)N[C@@H](CC(=O)O)C(N)=O [Example 62]	1.2
CC(C)C[C@H](NC(=O)[C@H]1Cc2c([nH]c3ccccc23)CN1C(=O)Nc1cccc(C(F)(F)F)c1)C(=O)N[C@@H](CC(=O)O)C(N)=O [Example 63]	4.1
Cc1cccc(NC(=O)N2Cc3[nH]c4ccccc4c3C[C@@H]2C(=O)N[C@@H](COCc2ccccc2)C(=O)N[C@@H](CC(=O)O)C(N)=O)c1 [Example 64]	5.3
CC(C)C[C@H](NC(=O)[C@H]1Cc2c([nH]c3ccccc23)CN1C(=O)Nc1cccc(F)c1)C(=O)N[C@@H](CC(=O)O)C(N)=O [Example 65]	7.3
CC(C)C[C@H](NC(=O)[C@H]1Cc2c([nH]c3ccccc23)CN1C(=O)Nc1ccc(Cl)c(Cl)c1)C(=O)N[C@@H](CC(=O)O)C(N)=O [Example 66]	0.54
CC(C)C[C@H](NC(=O)[C@H]1Cc2c([nH]c3ccccc23)CN1C(=O)Nc1cccc2ccccc12)C(=O)N[C@@H](CC(=O)O)C(N)=O [Example 67, N-[(3R)-2-(1-naphthylcarbamoyl)-1,2,3,4-tetrahydro-9H-pyrido[3,4-b]indole-3-carboxyl]-L-leucyl-L-aspartic acid amide]	2
